# Measurements taken from patent US20060046966A1, “Antipicornaviral compounds and compositions, their pharmaceutical uses, and materials for their synthesis” (Agouron Pharmaceuticals, Inc., priority 1998, published 2006).
# pEC50: −log10 of the molar value. Read-outs that look alike come from different tables or passages of the source.
# Experiments:
# [1] = target: T1, rhinovirus 3C protease from HRV serotype-14 (Human rhinovirus 14, UniProt P03303); test: Inhibition of rhinovirus 3C protease (FRET assay), serotype 14; assay type: biochemical; details: HRV serotype-14 3C protease, progress curves in enzyme start experiments; for kinact/KI: read-out: Protease Inhibition kobs/[I]
# T1 construct: Recombinant rhinovirus 3C proteases; made in house
# T1 sequence (P03303 1538-1719): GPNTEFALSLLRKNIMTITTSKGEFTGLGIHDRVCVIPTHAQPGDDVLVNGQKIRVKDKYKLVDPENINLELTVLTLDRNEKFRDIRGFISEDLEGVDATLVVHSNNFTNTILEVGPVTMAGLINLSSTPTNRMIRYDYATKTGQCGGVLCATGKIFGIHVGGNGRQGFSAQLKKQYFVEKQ
# Procedure: Stock solutions (50 mM, in DMSO) of various compounds were prepared; dilutions were in the same solvent. Recombinant rhinovirus 3C proteases (see Birch et al., “Purification of recombinant human rhinovirus 14 3C protease expressed in Escherichia coli,” Protein Expr. Pur. 1995, 6(5), 609-618) from serotypes 14, 16, and 2 were prepared by the following standard chromatographic procedures: (1) ion exchange using Q Sepharose Fast Flow from Pharmacia; (2) affinity chromatography using Affi-Gel Blue from Biorad; and (3) sizing using Sephadex G-100 from Pharmacia. Each assay sample contained 2% DMSO, 50 mM tris pH 7.6, 1 mM EDTA, a test compound at the indicated concentration, approximately 1 μM substrate, and 50-100 nM protease. The kobs/I values were obtained from reactions initiated by addition of enzyme rather than substrate. RVP activity was measured in the fluorescence resonance energy transfer assay. The substrate was (N-terminal) DABCYL-(Gly-Arg-Ala-Val-Phe-Gln-Gly-Pro-Val-Gly)-EDANS. In the uncleaved peptide, the EDANS fluorescence was quenched by the proximal DABCYL moiety. When the peptide was cleaved, the quenching was relieved, and activity was measured as an increase in fluorescence signal. In Table 1, all data are for rhinovirus 3C protease from HRV serotype-14 (produced from the infectious cDNA clone constructed by Dr. Robert Rueckert, Institute for Molecular Virology, University of Wisconsin, Madison, Wis.). […] The data in the column designated kobs/[I] were measured from progress curves in enzyme start experiments.
# HRV-14 = test: Antirhinoviral H1-HeLa cell culture assay, HRV-14; assay type: cell-based, human rhinovirus; details: HRV serotype-14, H1-HeLa cells
# Procedure: In this cell protection assay, the ability of compounds to protect cells against HRV infection was measured by the XTT dye reduction method, which is described in Weislow et al., J. Natl. Cancer Inst. 1989, vol. 81, 577-586.
# (§1) H1-HeLa cells were infected with HRV-14 at a multiplicity of infection (m.o.i.) of 0.13 (virus particles/cell) or mock-infected with medium only. Infected or mock-infected cells were resuspended at 8×10^5 cells per mL, and incubated with appropriate concentrations of the compounds to be tested. Two days later, XTT/PMS was added to test plates and the amount of formazan produced was quantified spectrophotometrically at 450/650 nm. The EC50 value was calculated as the concentration of compound that increased the percentage of formazan production in compound-treated, virus-infected cells to 50% of that produced by compound-free, mock-infected cells. The 50% cytotoxic dose (CC50) was calculated as the concentration of compound that decreased the percentage of formazan produced in compound-treated, mock-infected cells to 50% of that produced by compound-free, mock-infected cells. The therapeutic index (TI) was calculated by dividing the CC50 value by the EC50 value.
# (§2) All strains of human rhinovirus (HRV) for use in this assay were purchased from American Type Culture Collection (ATCC), except for HRV serotype-14 (produced from the infectious cDNA clone constructed by Dr. Robert Rueckert, Institute for Molecular Virology, University of Wisconsin, Madison, Wis.). HRV stocks were propagated and viral assays were performed in H1-HeLa cells (ATCC). Cells were grown in minimal essential medium with 10% fetal bovine serum, available from Life Technologies (Gaithersburg, Md.).
# The compounds were tested against control compounds WIN 51711, WIN 52084, and WIN 54954 (obtained from Sterling-Winthrop Pharmaceuticals), Pirodavir (obtained from Janssen Pharmaceuticals), and Pleconaril (prepared according to the method described in Diana et al., J. Med. Chem 1995, vol. 38, 1355). Antiviral data obtained for the test compounds are shown in Tables 1 and 3, where all data are for HRV serotype-14 unless otherwise noted in parentheses.
# [2] = Cytotoxicity in mock-infected H1-HeLa cells (antirhinoviral assay, XTT); assay type: cell-based; details: human, 50% cytotoxic dose, two days
# Procedure: as §1, §2
# [3] = Rhinovirus B, HRV14, H1-HeLa, Table 1, XTT dye reduction, read-out: Cell Protection EC50
# [4] = Rhinovirus B, HRV14, H1-HeLa, Table 3, XTT, read-out: EC50
Molecule,kinact/KI [1],pEC50 (HRV-14; [3]),pEC50 (HRV-14; [4]),CC50 at 2 days [2],Protease Inhibition kobs/[I] [1],"pEC50 (HRV-14; Table 1, XTT dye reduction, read-out: Cell Protection EC50)","pEC50 (HRV-14; Table 3, XTT, read-out: EC50)"
"CC(C)C[C@H](NC(=O)OCc1ccccc1)C(=O)N[C@@H](Cc1ccccc1)C(=O)N[C@H](/C=C/c1ccno1)CCC(N)=O [Comparison Compound #1, 5-(3′-(Cbz-L-Leu-L-Phe-L-Gln)-E-Propene)-isoxazole, reference compound]",573 M⁻¹ s⁻¹,< 3.49,< 3.49,–,–,–,–
"CCOC(=O)/C=C/[C@H](CCC(N)=O)NC(=O)[C@H](Cc1ccc(C)cc1)NC(=O)[C@@H](NC(=O)c1cc(C)on1)C(C)(C)C [Compound A-3, Ethyl-3-((5′-Methylisoxazole-3′-carbonyl)-L-α-(t-Butyl-Gly)-L-(4-Me-Phe)-L-Gln)-E-Propenoate]",310000 M⁻¹ s⁻¹,7.30,7.30,–,–,–,–
"CCOC(=O)/C=C/[C@H](CCC(N)=O)NC(=O)[C@H](Cc1ccc(F)cc1)NC(=O)[C@@H](NC(=O)c1cc(C)on1)C(C)(C)C [Compound A-4, Ethyl-3-((5′-Methylisoxazole-3′-carbonyl)-L-α-(t-Butyl-Gly)-L-(4-F-Phe)-L-Gln)-E-Provenoate]",270000 M⁻¹ s⁻¹,7.00,7.00,–,–,–,–
"CCOC(=O)/C=C/[C@H](CCC(N)=O)NC(=O)[C@H](Cc1ccc(F)cc1)NC(=O)[C@@H](NC(=O)c1cc(C)on1)C(C)C [Compound A-6, Ethyl-3-[(5′-Methylisoxazole-3′-carbonyl)-L-Val-L-(4-F-Phe)-L-Gln]-E-Propenoate]",248000 M⁻¹ s⁻¹,6.38,6.38,–,–,–,–
"CCOC(=O)/C=C/[C@H](C[C@@H]1CCCNC1=O)NC(=O)[C@H](Cc1ccc(F)cc1)NC(=O)[C@@H](NC(=O)c1cc(C)on1)C(C)C [Compound A-8, Ethyl-3-[(5′-Methylisoxazole-3′-carbonyl)-L-Val-L-(4-F-Phe)-L-((S)-Piper-Ala)}-E-Propenoate]",900000 M⁻¹ s⁻¹,–,–,–,–,–,–
"CCOC(=O)/C=C/[C@H](CCC(N)=O)NC(=O)[C@H](Cc1ccc(F)cc1)N(C)C(=O)[C@H](Cc1c[nH]cn1)NC(=O)c1cc(C)on1 [Compound A-9, Ethyl-3-{(5′-Methylisoxazole-3′-carbonyl)-L-His-NCH3-L-(4-F-Phe)-L-Gln}-E-Propenoate]",66000 M⁻¹ s⁻¹,5.74,5.74,–,–,–,–
"CCOC(=O)/C=C/[C@H](CCC(N)=O)NC(=O)[C@H](Cc1ccc(F)cc1)N(C)C(=O)[C@H](Cc1ccc2ccccc2c1)NC(=O)c1cc(C)on1 [Compound A-11, Ethyl-3-{(5′-Methylisoxazole-3′-carbonyl)-L-(2-Naphth)-NCH3-L-(4-F-Phe)-L-Gln}-E-Propenoate]",108000 M⁻¹ s⁻¹,7.52,7.52,–,–,–,–
"CCOC(=O)/C=C/[C@H](CCC(N)=O)NC(=O)[C@H](Cc1ccc(F)cc1)N(C)C(=O)[C@H](CC(C)C)NC(=O)c1cc(C)on1 [Compound A-12, Ethyl-3-{(5′-Methylisoxazole-3′-carbonyl)-L-Leu-NCH3-L-(4-F-Phe)-L-Gln}-E-Propenoate]",59300 M⁻¹ s⁻¹,6.40,6.40,–,–,–,–
"CCOC(=O)/C=C/[C@H](CCC(N)=O)NC(=O)[C@H](Cc1ccc(F)cc1)N(C)C(=O)[C@H](Cc1cccc2ccccc12)NC(=O)c1cc(C)on1 [Compound A-13, Ethyl-3-{(5′-Methylisoxazole-3′-carbonyl)-L-(1-Naphth)-NCH3-L-(4-F-Phe)-L-Gln}-E-Propenoate]",95800 M⁻¹ s⁻¹,6.70,6.70,–,–,–,–
CCOC(=O)/C=C/[C@H](CCC(N)=O)NC(=O)[C@H](Cc1ccccc1)NC(=O)[C@@H](NC(=O)c1cccs1)C(C)(C)C [Compound A-14],54500 M⁻¹ s⁻¹,6.32,6.32,> 100 µM,–,–,–
CC(C)[C@H](NC(=O)C1SCCS1)C(=O)N[C@@H](Cc1ccc(F)cc1)C(=O)N[C@H](/C=C/C(=O)OCc1cccnc1)CCC(N)=O [Compound A-18],292000 M⁻¹ s⁻¹,5.82,5.82,> 100 µM,–,–,–
CCOC(=O)/C=C/[C@H](CCC(N)=O)NC(=O)[C@H](Cc1ccccc1)NC(=O)[C@H](CC(C)C)NC(=O)[C@@H]1C=CCN1 [Compound A-19],27800 M⁻¹ s⁻¹,4.60,4.60,> 100 µM,–,–,–
CCOC(=O)/C=C/[C@H](CCC(N)=O)NC(=O)[C@H](Cc1ccccc1)NC(=O)[C@H](CC(C)C)NC(=O)c1cc(C)oc1C [Compound A-20],1020 M⁻¹ s⁻¹,4.90,4.90,> 100 µM,–,–,–
CCOC(=O)/C=C/[C@H](CCC(N)=O)NC(=O)[C@H](Cc1ccccc1)NC(=O)[C@H](CC(C)C)NC(=O)c1cc(C)[nH]n1 [Compound A-22],2400 M⁻¹ s⁻¹,–,–,–,–,–,–
CCOC(=O)/C=C/[C@H](CCC(N)=O)NC(=O)[C@H](Cc1ccccc1)NC(=O)[C@H](CC(C)C)NC(=O)c1cc(C)cs1 [Compound A-23],26000 M⁻¹ s⁻¹,–,–,–,–,–,–
"CCOC(=O)/C=C/[C@H](C[C@@H]1CCNC1=O)NC(=O)[C@H](Cc1ccccc1)NC(=O)[C@@H](NC(=O)OCc1ccccc1)C(C)C [Compound A-25, Ethyl-3-{Cbz-L-Val-L-Phe-L-((S)-Pyrrol-Ala)}-E-Propenoate]",500000 M⁻¹ s⁻¹,7.52,7.52,–,–,–,–
"CCOC(=O)/C=C/[C@H](C[C@@H]1CCCNC1=O)NC(=O)[C@H](Cc1ccccc1)NC(=O)[C@H](CC(C)C)NC(=O)OCc1ccccc1 [Compound A-26, Ethyl-3-{Cbz-L-Leu-L-Phe-L-((S)-Piper-Ala)}-E-Provenoate]",239000 M⁻¹ s⁻¹,7.52,7.52,–,–,–,–
"CCOC(=O)/C=C/[C@H](C[C@H]1CCNC1=O)NC(=O)[C@H](Cc1ccccc1)NC(=O)[C@H](CC(C)C)NC(=O)OCc1ccccc1 [Compound A-27, Ethyl-3-{Cbz-L-Leu-L-Phe-L-((R)-Pyrrol-Ala)}-E-Propenoate]",18000 M⁻¹ s⁻¹,5.80,5.80,–,–,–,–
"Cc1cc(C(=O)N[C@H](C(=O)C[C@@H](Cc2ccc(F)cc2)C(=O)N[C@H](/C=C2\CCOC2=O)C[C@@H]2CCNC2=O)C(C)C)no1 [Compound B-3, 2-{(5′-Methylisoxazole-3′-carbonyl)-L-ValΨ(COCH2)-L-(4-F-Phe)-L-((S)-Pyrrol-Ala)}-E-(α-Vinyl-γ-Butyrolactone)]",465000 M⁻¹ s⁻¹,6.74,6.74,–,–,–,–
"CCOC(=O)/C=C/[C@H](C[C@@H]1CCCNC1=O)NC(=O)[C@@H](CC(=O)[C@@H](NC(=O)c1cc(C)on1)C(C)C)Cc1ccc(F)cc1 [Compound B-4, Ethyl-3-[(5′-Methylisoxazole-3′-carbonyl)-L-ValΨ(COCH2)-L-(4-F-Phe)-L-((S)-Piper-Ala)}-E-Propenoate]",500000 M⁻¹ s⁻¹,> 7.52,> 7.52,–,–,–,–
"CCOC(=O)/C=C/[C@H](CCC(N)=O)NC(=O)[C@H](Cc1ccc(F)cc1)OC(=O)[C@@H](NC(=O)c1cc(C)on1)C(C)C [Compound C-1, Ethyl-3-{(5′-Methylisoxazole-3′-carbonyl)-L-Val-O-L-(4-F-Phe)-L-Gln}-E-Propenoate]",68400 M⁻¹ s⁻¹,7.00,7.00,–,–,–,–
Ethyl-3-((5′-Methylisoxazole-3′-carbonyl)-L-Leu-NCH3-L-Phe-L-Gln)-E-Provenoate [Compound A-10],–,–,–,–,"108,000 M^−1sec^−1",6.85,6.85
